This passage reports IC50 results from patent US8772244B2, “Tubulin inhibitors” (R&D Biopharmaceuticals GmbH, priority 2009, dated 2014).

What all share (assay type): cell-based
One assay relates to HCT-116. Nature of the assay: BrdU-Assay, IC-50 against cancer cell line HCT-116. The following applies: Homo sapiens; HCT-116, BrdU-Assay. From the text:
(§1) Determination of the IC-50 Concentration Against Various Cancer Cell Lines
(§2) The activity of some representative example compounds of the present invention has been determined with the BrdU-Assay as described in: Porstmann T., Ternynck T., Avrameas S. (1985) “Quantification of 5-bromo-2-deoxyuridine incorporation into DNA: an enzyme immunoassay for the assessment of the lymphoid cell proliferative response.” J. Immunol. Methods 82: 169-179.

A further assay concerns MCF-7. Nature of the assay: BrdU-Assay, IC-50 against cancer cell line MCF-7. Conditions: Homo sapiens, MCF7; MCF-7, BrdU-Assay.
Description: as §1, §2

The subject of another assay is MCF-7 MX100. Nature of the assay: BrdU-Assay, IC-50 against cancer cell line MCF-7 MX100. The following applies: MCF7/MX100; MCF-7 MX100, BrdU-Assay.
Description: as §1, §2

The next assay relates to MCF-7 TX200. Nature of the assay: BrdU-Assay, IC-50 against cancer cell line MCF-7 TX200. Conditions: Homo sapiens; MCF-7 TX200, BrdU-Assay.
Description: as §1, §2

For the next assay, the system named is MCF-7 VP. Nature of the assay: BrdU-Assay, IC-50 against cancer cell line MCF-7 VP. The following applies: Homo sapiens, MCF7-VP.
Description: as §1, §2

In another assay the test system is Skov-3. Nature of the assay: BrdU-Assay, IC-50 against cancer cell line Skov-3. Conditions: Homo sapiens, SK-OV-3; Skov-3, BrdU-Assay.
Description: as §1, §2

SMILES strings stand for the structures.

What is called IC50 is the concentration needed to halve the response being measured. Read a high IC50 as weaker potency in that assay. `CCCN(C(=O)C(NC(=O)C1CCCCN1C)[C@@H](C)CC)[C@H](C[C@@H](OCOC)c1nc(C(=O)N[C@@H](Cc2ccccc2)C[C@H](C)CO)cs1)C(C)C` (stereo partly drawn) [MSRD368]: the IC50 in the assay on HCT-116 stood at 41.1 nM; in the assay on MCF-7, 3.91 nM; with MCF-7 MX100, 4.01 nM; with MCF-7 TX200, 322 nM; with MCF-7 VP, 6.38 nM; in the assay on Skov-3, 29.9 nM.
Consider `CCCN(C(=O)C(NC(=O)C1CCCCN1C)[C@@H](C)CC)[C@H](C[C@@H](OC(C)=O)c1nc(C(=O)N[C@H](CO)Cc2ccccc2)cs1)C(C)C` (stereo partly drawn) [MSRD390], for which the IC50 with HCT-116 amounted to 1.1 nM; in the assay on MCF-7, 0.27 nM; in the assay on MCF-7 MX100 it was 0.2 nM; with MCF-7 TX200 it was 24.4 nM; in the assay with MCF-7 VP, 0.54 nM; in the assay on Skov-3, 1.06 nM.
For the molecule `CC[C@H](C)C(NC(=O)C1CCCCN1C)C(=O)N[C@H](C[C@@H](OC(C)=O)c1nc(C(=O)N[C@@H](Cc2ccccc2)C[C@H](C)CO)cs1)C(C)C` (stereo partly drawn) [SDRD28], the IC50 in the assay with HCT-116 came out at 4.31 nM; with MCF-7 it was 0.55 nM; with MCF-7 MX100, 1.41 nM; in the assay with MCF-7 TX200 it was 370 nM; with MCF-7 VP it was 3.04 nM; in the assay with Skov-3, 3.35 nM.
For `CC[C@H](C)C(NC(=O)C1CCCCN1C)C(=O)N(C)[C@H](C[C@@H](OC(C)=O)c1nc(C(=O)N[C@@H](Cc2ccccc2)C[C@H](C)CO)cs1)C(C)C` (stereo partly drawn) [MSRD345], the IC50 turned out to be 1.35 nM in the assay on HCT-116; 0.4 nM in the assay with MCF-7; 0.28 nM in the assay with MCF-7 MX100; 50.6 nM in the assay with MCF-7 TX200; 1.2 nM in the assay with MCF-7 VP; 1.18 nM with Skov-3.
In the case of `CCCN(C(=O)C(NC(=O)C1CCCCN1C)[C@@H](C)CC)[C@H](C[C@@H](OC(C)=O)c1nc(C(=O)N[C@@H](Cc2ccccc2)C[C@H](C)CO)cs1)C(C)C` (stereo partly drawn) [MSRD334], the IC50 with HCT-116 is 1.06 nM; in the assay on MCF-7, 0.57 nM; in the assay with MCF-7 MX100, 0.62 nM; with MCF-7 TX200, 15.6 nM; in the assay with MCF-7 VP, 0.88 nM; with Skov-3 it was 1.05 nM.
